# Source: PMC6222902, “DPP-IV Inhibitory Potentials of Flavonol Glycosides Isolated from the Seeds of Lens culinaris: In Vitro and Molecular Docking Analyses” (Molecules : A Journal of Synthetic Chemistry and Natural …, 2018)
# Experiments:
# [1] = target: T1, human recombinant DPP-IV (Homo sapiens, UniProt P27487); experiment: DPP-IV inhibitor screening assay kit (Cayman), fluorogenic substrate Gly-Pro-AMC; assay type: biochemical; settings: mean ± SD of three independent experiments
# T1 construct: purchased Cayman Chemical
# T1 sequence (P27487 whole entry): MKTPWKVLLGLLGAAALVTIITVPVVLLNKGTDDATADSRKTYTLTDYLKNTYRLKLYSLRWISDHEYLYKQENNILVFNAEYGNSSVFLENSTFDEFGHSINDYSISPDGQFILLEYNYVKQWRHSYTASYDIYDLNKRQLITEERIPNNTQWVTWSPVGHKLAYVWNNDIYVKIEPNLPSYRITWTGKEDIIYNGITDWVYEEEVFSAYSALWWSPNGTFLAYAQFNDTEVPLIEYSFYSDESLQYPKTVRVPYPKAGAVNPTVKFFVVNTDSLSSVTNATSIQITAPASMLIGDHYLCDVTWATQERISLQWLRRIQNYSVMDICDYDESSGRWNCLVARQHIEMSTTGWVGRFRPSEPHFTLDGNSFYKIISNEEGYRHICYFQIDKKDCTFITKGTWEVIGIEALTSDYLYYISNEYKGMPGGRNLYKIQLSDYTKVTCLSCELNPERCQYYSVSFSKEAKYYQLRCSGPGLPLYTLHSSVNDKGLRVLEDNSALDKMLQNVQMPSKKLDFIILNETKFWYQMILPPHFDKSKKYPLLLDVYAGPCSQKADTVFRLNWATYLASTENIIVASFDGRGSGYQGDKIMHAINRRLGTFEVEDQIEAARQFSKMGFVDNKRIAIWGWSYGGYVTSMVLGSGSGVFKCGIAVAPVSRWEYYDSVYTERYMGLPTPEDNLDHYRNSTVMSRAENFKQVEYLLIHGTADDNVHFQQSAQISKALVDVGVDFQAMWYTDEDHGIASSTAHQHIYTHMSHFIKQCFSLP
# Procedure: To the best of our knowledge, no prior studies examined the in vitro DPP-IV-inhibitory effects of 1–3, although the protein-ligand complex for 3 was examined via molecular docking analysis, using Discovery Studio 3.0 and Meta-Pocket (http://projects.biotec.tu-dresden.de/metapocket/).
# DPP-IV activity was analyzed using a DPP-IV inhibitor screening assay kit (Cayman Chemical, Ann Arbor, MI, USA), which provided a fluorescence-based method for screening DPP-IV inhibitors. The assay used the fluorogenic substrate, Gly-Pro-Aminomethylcoumarine (AMC), to measure DPP-IV activity. Cleavage of the peptide bond by DPP released the free AMC group, resulting in fluorescence that could be analyzed using an excitation wavelength of 350–360 nm and an emission wavelength of 450–465 nm.
# The tested compounds were initially dissolved in DMSO to produce 50 mM stock solution, and subsequently diluted to the required concentrations using DMSO, and then they were added to a 96-well plate in final volume of 10 μL and a final concentration of 50 μM. The assay procedure is described briefly according to the manufacturer’s protocols as follows: Diluted assay buffer (30 μL) and diluted enzyme solution (10 μL) were added to the 96-well plate containing 10 μL of solvent (blank) or solvent-dissolved test compounds. The reaction was initiated by adding 50 μL of a diluted substrate solution, and the plate was incubated for 30 min at 37 °C. After incubation, fluorescence with an excitation wavelength of 350 nm and an emission wavelength of 450 nm was monitored using a plate reader (TECAN, Männedorf, Switzerland). The percent inhibition was expressed as ([DPP-IV level of vehicle–treated control–DPP-IV level of test samples]/DPP-IV level of vehicle-treated control) × 100.
# [2] = tested on: DPP-IV; settings: DPP-IV Glo Protease Assay kit (Promega); cited from earlier work
# [3] = tested on: DPP-IV; design: method as in PMID 22410395; settings: cited from earlier work
IC50 [1] [µM],SMILES,IC50 [2] [µM],in vivo bioactivities as a DPP-IV inhibitor [3]
27.9 ± 1.29,"CC1OC(Oc2cc(O)c3c(=O)c(OC4OC(CO)C(O)C(O)C4OC4OC(CO)C(O)C(O)C4O)c(-c4ccc(O)cc4)oc3c2)C(O)C(O)C1O (stereo not drawn) [Compound 1, kaempferol-3-O-β-gulcopyranosyl-(1→2)-β-galactopyranosyl-7-O-α-rhamnopyranoside]",,
36.5 ± 0.78,"CC1OC(OCC2OC(Oc3c(-c4ccc(O)cc4)oc4cc(OC5OC(C)C(O)C(O)C5O)cc(O)c4c3=O)C(OC3OC(CO)C(O)C(O)C3O)C(O)C2O)C(O)C(O)C1O (stereo not drawn) [Compound 2, kaempferol-3-O-β-gulcopyranosyl-(1→2)-[α-rhamnopyranosyl(1→6)]-β-galactopyranosyl-7-O-α-rhamnopyranoside]",,
37 ± 1.4,"CC1OC(OCC2OC(Oc3c(-c4ccc(O)cc4)oc4cc(OC5OC(C)C(O)C(O)C5O)cc(O)c4c3=O)C(O)C(O)C2O)C(O)C(O)C1O (stereo not drawn) [Compound 3, kaempferol-3-O-α-rhamnosyl(1→6)-O-β-galactopyranoside-7-O-α-rhamnopyranoside]",,
51.7 ± 4.83,"O=c1c(O)c(-c2ccc(O)cc2)oc2cc(O)cc(O)c12 [Compound 4, kaempferol]",0.49 ± 0.02,
,O=c1c(O[C@@H]2O[C@H](CO)[C@@H](O)[C@H](O)[C@H]2O)c(-c2ccc(O)c(O)c2)oc2cc(O)cc(O)c12 [isoquercitrin],,strong in vivo bioactivities
,C[C@@H]1O[C@@H](O[C@H]2[C@H](Oc3cc(O)c4c(c3)O[C@H](c3ccc(O)cc3)CC4=O)O[C@H](CO)[C@@H](O)[C@@H]2O)[C@H](O)[C@H](O)[C@H]1O [naringin],,strong in vivo bioactivities
